Laboratory results published in US6156700A, “3-(1,2-Benzisothiazol- and isoxazol-5-yl)-2,4(1H,3H)-pyrimidinedione or thione and 3-(1,2-benzisothiazol- and isoxazol-5-yl)-4(3H)-pyrimidinone or thione herbicidal agents” (American Cyanmid Company, priority 1998, dated 2000).

Assays:
Settings in all cases: 0.0630 kg/ha
[1] = system: Lambsquarters, Common, Chenopodium album; test: Postemergence herbicidal evaluation, CHEAL; assay type: in vivo, L.
Method: (§1) In the tests, seedling plants are grown in jiffy flats for about two weeks. The test compounds are dispersed in 50/50 acetone/water mixtures containing 0.5% TWEEN®20, a polyoxyethylene sorbitan monolaurate surfactant of Atlas Chemical Industries, in sufficient quantities to provide the equivalent of about 0.0157 kg to 0.500 kg per hectare of active compound when applied to the plants through a spray nozzle operating at 40 psi for a predetermined time. After spraying, the plants are placed on greenhouse benches and are cared for in accordance with conventional greenhouse procedures. From four to five weeks after treatment, the seedling plants are examined and rated according to the rating system set forth below. Where more than one test is involved for a given compound, the data are averaged.
(§2) Results of herbicide evaluation are expressed on a rating scale (0-9). The scale is based upon a visual observation of plant stand, vigor, malformation, size, chlorosis and overall plant appearance as compared with a control.

[2] = system: Morningglory, Ivyleaf, Ipomoea hederacea; test: Postemergence herbicidal evaluation, IPOHE; assay type: in vivo, (L.) Jacq.
Method: as §1, §2

Corn, Field, Zea mays = test: Postemergence herbicidal evaluation, ZEAMX; assay type: in vivo, L.
Method: as §1, §2

Galium, Galium aparine = test: Postemergence herbicidal evaluation, GALAP; assay type: in vivo
Method: as §1, §2

[3] = system: Ragweed, Common, Ambrosia artemisifolia; test: Postemergence herbicidal evaluation, AMBEL; assay type: in vivo, L.
Method: as §1, §2

[4] = system: Wheat, Winter, cv Riband, Triticum aestivum; test: Postemergence herbicidal evaluation, TRZAWR; assay type: in vivo
Method: as §1, §2

[5] = system: Soybean, Williams, Glycine max; test: Postemergence herbicidal evaluation, GLXMAW; assay type: in vivo, (L.) Merr. cv Williams
Method: as §1, §2

[6] = system: Barnyardgrass, Echinochloa crus-galli; test: Postemergence herbicidal evaluation, ECHCG; assay type: in vivo, (L.) Beau
Method: as §1, §2

[7] = system: Rice, Tebonnet, Oryza sativa; test: Postemergence herbicidal evaluation, ORYSAT; assay type: in vivo, (L.) Tebonnet
Method: as §1, §2

[8] = system: Foxtail, Green, Setaria viridis; test: Postemergence herbicidal evaluation, SETVI; assay type: in vivo, (L.) Beau
Method: as §1, §2

[9] = system: Sicklepod, Cassia obtusifolia; test: Postemergence herbicidal evaluation, CASOB; assay type: in vivo, L.
Method: as §1, §2

[10] = system: Velvetleaf, Abutilon theophrasti; test: Postemergence herbicidal evaluation, ABUTH; assay type: in vivo, Medic.
Method: as §1, §2

Row | SMILES | herbicide rating (0-9) [1] | herbicide rating (0-9) [2] | herbicide rating (0-9) (Corn, Field, Zea mays) | herbicide rating (0-9) (Galium, Galium aparine) | herbicide rating (0-9) [3] | herbicide rating (0-9) [4] | herbicide rating (0-9) [5] | herbicide rating (0-9) [6] | herbicide rating (0-9) [7] | herbicide rating (0-9) [8] | herbicide rating (0-9) [9] | herbicide rating (0-9) [10]
1 | Cc1ccc(OCC(=O)OCc2ccccn2)c(-c2nsc3ccc(-n4c(=O)cc(C(F)(F)F)n(C)c4=O)cc23)c1 [Compound 72, 2-Pyridylmethyl {{2-{5-[3,6-dihydro-3-methyl-2,6-dioxo-4-(trifluoromethyl)-1(2H)-pyrimidinyl]-1,2-benzisothiazol-3-yl}-p-tolyl}oxy}acetate] | 9.0 | 9.0 | 8.0 | 9.0 | 9.0 | 7.5 | 9.0 | 9.0 | 7.5 | 9.0 | 7.0 | 9.0
2 | Cc1ccc(OCC(=O)OCC#Cc2ccccc2)c(-c2nsc3ccc(-n4c(=O)cc(C(F)(F)F)n(C)c4=O)cc23)c1 [Compound 73] | 9.0 | 9.0 | 6.0 | 9.0 | 9.0 | 4.5 | 9.0 | 9.0 | 5.5 | 9.0 | 9.0 | 9.0
3 | C#CC(C)OC(=O)COc1ccc(C)cc1-c1nsc2ccc(-n3c(=O)cc(C(F)(F)F)n(C)c3=O)cc12 (stereo not drawn) [Compound 74, 1-Methyl-2-propynyl {{2-{5-[3,6-dihydro-3-methyl-2,6-dioxo-4-(trifluoromethyl)-1(2H)-pyrimidinyl]-1,2-benzisothiazol-3-yl}-p-tolyl}oxy}acetate] | 9.0 | 9.0 | 8.5 | 9.0 | 9.0 | 7.5 | 9.0 | 9.0 | 7.0 | 9.0 | 9.0 | 9.0
4 | CC#CCOC(=O)COc1ccc(C)cc1-c1nsc2ccc(-n3c(=O)cc(C(F)(F)F)n(C)c3=O)cc12 [Compound 75] | 9.0 | 9.0 | 7.5 | 7.0 | 9.0 | 9.0 | 9.0 | 9.0 | 6.5 | 9.0 | 7.0 | 9.0
5 | CC#CC(C)OC(=O)COc1ccc(C)cc1-c1nsc2ccc(-n3c(=O)cc(C(F)(F)F)n(C)c3=O)cc12 (stereo not drawn) [Compound 76, 1-Methyl-2-butynyl {{2-{5-[3,6-dihydro-3-methyl-2,6-dioxo-4-(trifluoromethyl)-1(2H)-pyrimidinyl]-1,2-benzisothiazol-3-yl}-p-tolyl}oxy}acetate] | 9.0 | 9.0 | 8.0 | 9.0 | 9.0 | 9.0 | 9.0 | 9.0 | 6.0 | 9.0 | 9.0 | 9.0
6 | C#CCOC(=O)C(C)Oc1ccc(C)cc1-c1nsc2ccc(-n3c(=O)cc(C(F)(F)F)n(C)c3=O)cc12 (stereo not drawn) [Compound 77, 2-Propynyl 2-{{2-{5-[3,6-dihydro-3-methyl-2,6-dioxo-4-(trifluoromethyl)-1(2H)-pyrimidinyl]-1,2-benzisothiazol-3-yl}-p-tolyl}oxy}propionate] | 9.0 | 9.0 | 8.0 | 9.0 | 9.0 | 9.0 | 7.0 | 9.0 | 9.0 | 9.0 | 4.0 | 9.0
7 | C=CCOC(=O)C(C)Oc1ccc(C)cc1-c1nsc2ccc(-n3c(=O)cc(C(F)(F)F)n(C)c3=O)cc12 (stereo not drawn) [Compound 78, Allyl 2-{{2-{5-[3,6-dihydro-3-methyl-2,6-dioxo-4-(trifluoromethyl)-1(2H)-pyrimidinyl]-1,2-benzisothiazol-3-yl}-p-tolyl}oxy}propionate] | 9.0 | 9.0 | 7.5 | 7.0 | 9.0 | 9.0 | 6.5 | 9.0 | 7.0 | 9.0 | 3.0 | 9.0
8 | Cc1ccc(OC(C)C(=O)OCc2ccco2)c(-c2nsc3ccc(-n4c(=O)cc(C(F)(F)F)n(C)c4=O)cc23)c1 (stereo not drawn) [Compound 79, Furfuryl 2-{{2-{5-[3,6-dihydro-3-methyl-2,6-dioxo-4-(trifluoromethyl)-1(2H)-pyrimidinyl]-1,2-benzisothiazol-3-yl}-p-tolyl}oxy}propionate] | 9.0 | 9.0 | 7.5 | 9.0 | 9.0 | 8.5 | 7.5 | 9.0 | 7.5 | 9.0 | 7.0 | 9.0
9 | CC#CCOC(=O)C(C)Oc1ccc(C)cc1-c1nsc2ccc(-n3c(=O)cc(C(F)(F)F)n(C)c3=O)cc12 (stereo not drawn) [Compound 80, 2-Butynyl 2-{{2-{5-[3,6-dihydro-3-methyl-2,6-dioxo-4-(trifluoromethyl)-1(2H)-pyrimidinyl]-1,2-benzisothiazol-3-yl}-p-tolyl}oxy}propionate] | 9.0 | 9.0 | 7.5 | 9.0 | 9.0 | 8.0 | 7.5 | 9.0 | 7.5 | 9.0 | 7.0 | 9.0
10 | Cc1ccc(OC(C)C(=O)OCCCl)c(-c2nsc3ccc(-n4c(=O)cc(C(F)(F)F)n(C)c4=O)cc23)c1 (stereo not drawn) [Compound 81, 2-Chloroethyl 2-{{2-{5-[3,6-dihydro-3-methyl-2,6-dioxo-4-(trifluoromethyl)-1(2H)-pyrimidinyl]-1,2-benzisothiazol-3-yl}-p-tolyl}oxy}propionate] | 9.0 | 9.0 | 8.0 | 9.0 | 9.0 | 8.5 | 7.0 | 9.0 | 8.0 | 9.0 | 3.0 | 9.0
11 | Cc1ccc(OC(C)C(=O)OC(C)C)c(-c2nsc3ccc(-n4c(=O)cc(C(F)(F)F)n(C)c4=O)cc23)c1 (stereo not drawn) [Compound 82, Isopropyl 2-{{2-{5-[3,6-dihydro-3-methyl-2,6-dioxo-4-(trifluoromethyl)-1(2H)-pyrimidinyl)-1,2-benzisothiazol-3-yl}-p-tolyl}oxy}propionate] | 9.0 | 9.0 | 5.5 | 4.0 | 6.0 | 6.0 | 5.5 | 7.0 | 5.5 | 9.0 | 1.0 | 9.0
12 | CCC(CC)OC(=O)COc1ccc(C)cc1-c1nsc2ccc(-n3c(=O)cc(C(F)(F)F)n(C)c3=O)cc12 [Compound 83, 1-Ethylpropyl {{2-{5-[3,6-dihydro-3-methyl-2,6-dioxo-4-(trifluoromethyl)-1(2H)-pyrimidinyl)-1,2-benzisothiazol-3-yl}-p-tolyl}oxy}acetate] | 9.0 | 9.0 | 6.0 | 7.0 | 9.0 | 6.5 | 8.0 | 9.0 | 7.5 | 9.0 | 3.0 | 9.0
